The values that follow come from US11345702B1 (Myoforte Therapeutics, Inc., priority 2020, dated 2022).

A value given as a limit tells only on which side of the number the result lay.

Sequence of 15-PGDH/HPGD (P15428 whole entry): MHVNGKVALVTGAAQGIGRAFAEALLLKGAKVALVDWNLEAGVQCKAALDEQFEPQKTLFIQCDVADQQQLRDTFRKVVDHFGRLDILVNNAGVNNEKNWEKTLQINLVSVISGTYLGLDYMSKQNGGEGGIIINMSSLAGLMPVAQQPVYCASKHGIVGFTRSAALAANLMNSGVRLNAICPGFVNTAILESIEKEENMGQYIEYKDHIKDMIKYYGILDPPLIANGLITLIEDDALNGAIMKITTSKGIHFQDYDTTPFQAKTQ

Test system in one series: not listed separately
As to the kind of experiment: Liver microsome stability assay (MLM). The class given is in vitro ADME. The conditions noted are these: mouse liver microsomes. As for the experimental part:
A microsomal mixture (microsomes and Kphos buffer) was prepared at a concentration of 1.428 mg/mL in 2 mL tubes. To this microsomal mixture 1.6 μL (1 mM) of test compound and positive control were spiked; from this mixture, 70 μL was transferred to 96 well plate and pre-incubated at 37° C. for 5 min. After pre-incubation, the zero minute time point reaction was stopped using 100 μL of ice-cold acetonitrile containing internal standard and […] (3.33 mM in Kphos buffer) was added. The 45 minute time point reaction was initiated by addition of 30 μL of NADPH (3.33 mM in Kphos buffer) and incubated at 37° C. for 15 and 45 min. Reactions without NADPH and buffer controls (minus NADPH) at 0, 15, and 45 minutes were also incubated to rule out non-NADPH metabolism or chemical instability in the incubation buffer. Incubation reactions were stopped with 100 μL of ice-cold acetonitrile containing internal standard. The plates were centrifuged at 4000 RPM for 15 min and 100 μL aliquots were submitted for analysis by LC-MS/MS. (Verapamil in human liver microsomes (HLM) and rat liver microsomes (RLM) was used as positive controls. Imipramine in mouse liver microsomes (MLM) was used as a positive control.) Samples were monitored for parent compound disappearance in MRM mode (multiple reaction monitoring) using LC-MS/MS. The peak area ratios of analyte versus internal standard were used to calculate the % remaining at the end of 45 minutes in the presence of NADPH.
Background: Liver microsomes are vesicles of endoplasmic reticulum, rich in cytochrome P450 enzymes.
`O=C(NC1CCS(=O)(=O)CC1)c1cc(Cl)cc(-n2ccc3cc(C(=O)N4CCC(F)(F)CC4)cnc32)c1`: the “MLM + NADPH (% remaining at 45 min)” value stood at 81%. Consider `Cc1nc(-c2ccc(-n3c(CCC(C)(C)O)cc4cc(C(=O)N5CCC(F)(F)CC5)cnc43)cc2)no1` [MF-DH-542, (4,4-difluoropiperidin-1-yl)(2-(3-hydroxy-3-methylbutyl)-1-(4-(5-methyl-1,2,4-oxadiazol-3-yl)phenyl)-1H-pyrrolo[2,3-b]pyridin-5-yl)methanone], for which the “MLM + NADPH (% remaining at 45 min)” value is given as 68%. `O=C(c1cnc2c(ccn2-c2ccc3[nH]ncc3c2)c1)N1CCC(F)(F)CC1` [MF-DH-396]: the “MLM + NADPH (% remaining at 45 min)” value is 4%. On the same count and under the same terms, then `CC(C)(C)c1ccc(NC(=O)c2cncc(-n3ccc4cc(C(=O)N5CCC(F)(F)CC5)cnc43)c2)cn1` [MF-DH-520, N-(6-(tert-butyl)pyridin-3-yl)-5-(5-(4,4-difluoropiperidine-1-carbonyl)-1H-pyrrolo[2,3-b]pyridin-1-yl)nicotinamide], with 38%; and `O=C(c1cnc2c(ccn2-c2cccc(-c3nn[nH]n3)c2)c1)N1CCC(F)(F)CC1` [MF-DH-515, (1-(3-(2H-tetrazol-5-yl)phenyl)-1H-pyrrolo[2,3-b]pyridin-5-yl)(4,4-difluoropiperidin-1-yl)methanone], with 103%.

On to `Cc1c(C(=O)N2CCC(F)CC2)cnc2c1ccn2-c1ccc(C#N)cc1` [MF-DH-387, 4-(5-(4-fluoropiperidine-1-carbonyl)-4-methyl-1H-pyrrolo[2,3-b]pyridin-1-yl)benzonitrile], for which the “MLM + NADPH (% remaining at 45 min)” value is 72%.

Turning to `O=C(NC(CO)CO)c1ccc(-n2ccc3cc(C(=O)N4CCC(F)(F)CC4)cnc32)cc1` [MF-DH-412], the “MLM + NADPH (% remaining at 45 min)” value stood at 97%. As to `O=C(c1cnc2c(ccn2-c2ccc(-c3nnn[nH]3)nc2)c1)N1CCC(F)(F)CC1` [MF-DH-452, (1-(6-(1H-tetrazol-5-yl)pyridin-3-yl)-1H-pyrrolo[2,3-b]pyridin-5-yl)(4,4-difluoropiperidin-1-yl)methanone], the “MLM + NADPH (% remaining at 45 min)” value is 90%.

Consider `O=C(c1cnc2c(ccn2-c2ccc(-c3nn[nH]n3)cc2)c1)N1CCC(F)(F)CC1` [MF-DH-514, (1-(4-(2H-tetrazol-5-yl)phenyl)-1H-pyrrolo[2,3-b]pyridin-5-yl)(4,4-difluoropiperidin-1-yl)methanone], for which the “MLM + NADPH (% remaining at 45 min)” value came out at 110%.

Another series concerns the target 15-PGDH/HPGD (Homo sapiens (Human), UniProt P15428). As to the kind of experiment: hPGDH inhibitor screening biochemical assay. The conditions noted are these: read-out: hPGDH: Average IC50. The procedure, abridged: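 Ten-point dose-response inhibition of 15-PGDH measured by fluorescence (340/485 nm) after 10 min at room temperature with PGE2 (15 μM) and NAD+ (0.25 mM), following 10 min enzyme (10 nM)–compound pre-incubation at 37 °C. Buffer: 50 mM Tris-HCl pH 7.5, 0.01% Tween 20. Percent inhibition relative to 1% DMSO; four-parameter IC50.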
Broadly, the IC50 is the concentration needed to halve the response being measured. With `O=C(NC1CCS(=O)(=O)CC1)c1cc(Cl)cc(-n2ccc3cc(C(=O)N4CCC(F)(F)CC4)cnc32)c1`, the IC50 was less than 0.1 µM. Turning to `Cc1nc(-c2ccc(-n3c(CCC(C)(C)O)cc4cc(C(=O)N5CCC(F)(F)CC5)cnc43)cc2)no1` [MF-DH-542, (4,4-difluoropiperidin-1-yl)(2-(3-hydroxy-3-methylbutyl)-1-(4-(5-methyl-1,2,4-oxadiazol-3-yl)phenyl)-1H-pyrrolo[2,3-b]pyridin-5-yl)methanone], the IC50 was less than 0.1 µM. Same read-out and setting: then `O=C(c1cnc2c(ccn2-c2ccc3[nH]ncc3c2)c1)N1CCC(F)(F)CC1` [MF-DH-396], with less than 0.1 µM; and `CC(C)(C)c1ccc(NC(=O)c2cncc(-n3ccc4cc(C(=O)N5CCC(F)(F)CC5)cnc43)c2)cn1` [MF-DH-520, N-(6-(tert-butyl)pyridin-3-yl)-5-(5-(4,4-difluoropiperidine-1-carbonyl)-1H-pyrrolo[2,3-b]pyridin-1-yl)nicotinamide], with less than 0.1 µM; and `O=C(c1cnc2c(ccn2-c2cccc(-c3nn[nH]n3)c2)c1)N1CCC(F)(F)CC1` [MF-DH-515, (1-(3-(2H-tetrazol-5-yl)phenyl)-1H-pyrrolo[2,3-b]pyridin-5-yl)(4,4-difluoropiperidin-1-yl)methanone], with less than 0.1 µM.

Regarding `Cc1c(C(=O)N2CCC(F)CC2)cnc2c1ccn2-c1ccc(C#N)cc1` [MF-DH-387, 4-(5-(4-fluoropiperidine-1-carbonyl)-4-methyl-1H-pyrrolo[2,3-b]pyridin-1-yl)benzonitrile], the IC50 was less than 0.1 µM. As to `O=C(NC(CO)CO)c1ccc(-n2ccc3cc(C(=O)N4CCC(F)(F)CC4)cnc32)cc1` [MF-DH-412], the IC50 is less than 0.1 µM. In the case of `O=C(c1cnc2c(ccn2-c2ccc(-c3nnn[nH]3)nc2)c1)N1CCC(F)(F)CC1` [MF-DH-452, (1-(6-(1H-tetrazol-5-yl)pyridin-3-yl)-1H-pyrrolo[2,3-b]pyridin-5-yl)(4,4-difluoropiperidin-1-yl)methanone], the IC50 is less than 0.1 µM.

In the case of `O=C(c1cnc2c(ccn2-c2ccc(-c3nn[nH]n3)cc2)c1)N1CCC(F)(F)CC1` [MF-DH-514, (1-(4-(2H-tetrazol-5-yl)phenyl)-1H-pyrrolo[2,3-b]pyridin-5-yl)(4,4-difluoropiperidin-1-yl)methanone], the concentration for half-maximal inhibition (IC50) is less than 0.1 µM. Consider `O=C(c1ccc(COc2ccccc2-c2cncs2)cc1)N1CCCCC1` [MF-PGDH-097], for which the half-maximal inhibitory concentration (IC50) is less than 0.1 µM. For the molecule `CC(C)(O)CCc1cc2cc(C(=O)N3CCC(F)(F)CC3)cnc2n1-c1ccc(C#N)cc1` [MF-DH-444, 4-(5-(4,4-difluoropiperidine-1-carbonyl)-2-(3-hydroxy-3-methylbutyl)-1H-pyrrolo[2,3-b]pyridin-1-yl)benzonitrile], the concentration for half-maximal inhibition (IC50) is less than 0.1 µM. As to `N#Cc1ccc(-n2ccc3cc(C(=O)N4CC[C@H](F)C4)cnc32)cc1` (single isomer, unassigned) [MF-DH-574], the IC50 is less than 0.1 µM. Take `O=C(c1cnc2c(ccn2-c2cscn2)c1)N1CCCCC1` [MF-PGDH-074]: the IC50 was less than 0.1 µM. `O=C(c1cnc2c(ccn2C2CCC(F)(F)CC2)c1)N1CCCCC1` [MF-DH-284]: the 50% inhibitory concentration (IC50) is no less than 1 µM. Same read-out and setting: the result for `NC(=O)c1ncc(-n2ccc3cc(C(=O)N4CCCCC4)cnc32)cn1` [MF-DH-384] reads less than 0.1 µM. Same read-out and setting: the result for `COc1ccc(-n2ccc3c(N)c(C(=O)N4CCCCC4)cnc32)cc1` [MF-DH-290, (4-amino-1-(4-methoxyphenyl)-1H-pyrrolo[2,3-b]pyridin-5-yl)(piperidin-1-yl)methanone] reads less than 0.1 µM; that for `COc1ccc(-n2ccc3c(NCc4ccccc4)c(C(=O)N4CCCCC4)cnc32)cc1` [MF-DH-385, (4-(benzylamino)-1-(4-methoxyphenyl)-1H-pyrrolo[2,3-b]pyridin-5-yl) (piperidin-1-yl) methanone], 0.1 to 1 µM; that for `COCCc1nc2cc(C(=O)N3CCC(F)CC3)cnc2n1-c1ccc(OC)cc1` [MF-DH-185], no less than 1 µM.

For the molecule `Cc1c(C(=O)N2CCC(F)CC2)cnc2c1ccn2-c1cnccn1` [MF-DH-150, (4-fluoropiperidin-1-yl)(4-methyl-1-(pyrazin-2-yl)-1H-pyrrolo[2,3-b]pyridin-5-yl)methanone], the IC50 was less than 0.1 µM. Consider `O=C(c1ccc2c(c1)ncn2-c1cccc(Cl)c1)N1CCC(O)C1` (stereo not drawn) [MF-PGDH-050], for which the IC50 is no less than 1 µM. For `O=C(c1ccc2c(cnn2-c2cccc(Cl)c2)c1)N1CCCCC1` [MF-PGDH-006, (1-(3-chlorophenyl)-1H-indazol-5-yl)(piperidin-1-yl)methanone], the concentration for half-maximal inhibition (IC50) was less than 0.1 µM.

On to `O=C(c1cnc2c(ccn2-c2cnccn2)c1)N1CCC(F)CC1` [MF-DH-123], for which the IC50 is less than 0.1 µM. For `N#Cc1cncc(-n2ccc3cc(C(=O)N4CCCCC4)cnc32)c1` [MF-DH-364], the half-inhibitory concentration (IC50) is less than 0.1 µM. `O=C(c1cnc2c(ccn2-c2ccn3ccnc3c2)c1)N1CCCCC1` [MF-DH-318]: the concentration for half-maximal inhibition (IC50) was less than 0.1 µM.

For the molecule `O=C(c1cnc2c(c1)ncn2-c1ccc(OC(F)F)cc1)N1CCC(F)CC1` [MF-DH-222], the concentration for half-maximal inhibition (IC50) was 0.1 to 1 µM. Take `O=C(c1ccc(-n2ccc3cc(C(=O)N4CCC(F)(F)CC4)cnc32)cc1)N(CCO)CCO` [MF-DH-451]: the IC50 is less than 0.1 µM.

Turning to `NC(=O)c1ccc(-n2ccc3cc(C(=O)N4CCC(F)CC4)cnc32)cc1` [MF-DH-343], the half-inhibitory concentration (IC50) is less than 0.1 µM.

Regarding `O=C1CCN(C(=O)c2ccc3c(c2)ncn3-c2cccc(Cl)c2)C1` [MF-PGDH-090, 1-(1-(3-chlorophenyl)-1H-benzo[d]imidazole-5-carbonyl)pyrrolidin-3-one], the half-inhibitory concentration (IC50) was no less than 1 µM.

As to `COCCc1nc2cc(C(=O)N3CCC(F)CC3)ccc2n1-c1ccc(OC)cc1` [MF-DH-186], the IC50 was 0.1 to 1 µM. Regarding `NS(=O)(=O)c1cccc(-n2ccc3cc(C(=O)N4CCC(F)(F)CC4)cnc32)c1` [MF-DH-495], the IC50 was less than 0.1 µM.

With `O=C(c1ccc2c(c1)ncn2-c1cccc(Cl)c1)N1CCC1` [MF-PGDH-104], the half-maximal inhibitory concentration (IC50) lay within 0.1 to 1 µM.

As to `O=C(c1cnc2c(c(Cl)cn2-c2cnccn2)c1Cl)N1CCC(F)CC1` [MF-DH-147], the IC50 was less than 0.1 µM. `CCc1nc2cc(C(=O)N3CCC(F)CC3)cnc2n1-c1ccc(OC)cc1` [MF-DH-184]: the IC50 was in the range of 0.1 to 1 µM. Consider `CS(=O)(=O)c1cccc(-n2ccc3cc(C(=O)N4CCCCC4)cnc32)c1` [MF-DH-309], for which the IC50 was less than 0.1 µM.

As for `COc1ccc(Cn2cnc(-n3ccc4cc(C(=O)N5CCCCC5)cnc43)c2)cc1` [MF-DH-128], the half-maximal inhibitory concentration (IC50) is 0.1 to 1 µM. `COc1cc(C(=O)N2CCCCC2)ccc1COc1ccccc1Cl` [MF-PGDH-038]: the 50% inhibitory concentration (IC50) was less than 0.1 µM.

For `COc1ccc(-n2cnc3cc(C(=O)N4CCC(F)CC4)ccc32)cc1` [MF-PGDH-009], the concentration for half-maximal inhibition (IC50) was less than 0.1 µM. `O=C(c1ccc(COc2ccccc2Cl)cn1)N1CCC(F)CC1` [MF-DH-121, (5-((2-chlorophenoxy)methyl)pyridin-2-yl)(4-fluoropiperidin-1-yl)methanone]: the IC50 is no less than 1 µM.

In the case of `NC(=O)c1ccc(-n2ccc3cc(C(=O)N4CCC(F)(F)CC4)cnc32)cc1` [MF-DH-394], the IC50 was less than 0.1 µM.

As to `O=C(c1ccc2c(c1)CCC(=O)N2c1cccc(Cl)c1)N1CCCCC1` [MF-PGDH-058, 1-(3-chlorophenyl)-6-(piperidine-1-carbonyl)-3,4-dihydroquinolin-2(1H)-one], the IC50 lay within 0.1 to 1 µM. The same measure, in the same setting: the result for `O=C(NCCO)c1cccc(-n2ccc3cc(C(=O)N4CCC(F)(F)CC4)cnc32)c1` [MF-DH-468, 3-(5-(4,4-difluoropiperidine-1-carbonyl)-1H-pyrrolo[2,3-b]pyridin-1-yl)-N-(2-hydroxyethyl)benzamide] reads less than 0.1 µM.

With `NC(=O)[C@@H]1CCCN1C(=O)c1ccc(-n2ccc3cc(C(=O)N4CCC(F)(F)CC4)cnc32)cc1` [MF-DH-450, (S)-1-(4-(5-(4,4-difluoropiperidine-1-carbonyl)-1H-pyrrolo[2,3-b]pyridin-1-yl)benzoyl)pyrrolidine-2-carboxamide], the IC50 is less than 0.1 µM. Same read-out and setting: the result for `O=C(c1ccc(CSc2ccccc2Cl)cc1)N1CCCCC1` [MF-PGDH-039] reads less than 0.1 µM.

Regarding `O=C(c1cnc2c(ccn2-c2ccc(CO)cc2)c1)N1CCC(F)CC1` [MF-DH-347], the concentration for half-maximal inhibition (IC50) is less than 0.1 µM. Still for that read-out and setting: then `COc1ccccc1-c1cn(C)c2cc(C(=O)N3CCC(F)CC3)cnc12` [MF-DH-200, (4-fluoropiperidin-1-yl)(3-(2-methoxyphenyl)-1-methyl-1H-pyrrolo[3,2-b]pyridin-6-yl)methanone], with no less than 1 µM.
